Data published in ChEMBL document CHEMBL6134872, “Efficacy and Toxicity Analysis of Selective BET Bromodomain Inhibitors in Models of Inflammatory Liver Disease” (J Med Chem, 2025).
Calls of active or inactive are those of the source. No cut-off for these calls is given here.

Assays:
[1] = Half life in male C57BL6 mouse liver at 10 mg/kg, ip measured up to 24 hrs by LC-MS/MS analysis; type: ADME, organism-based; conditions: for half-life: male, C57BL6, mouse, liver
TSEC [2] = test: Antiinflammatory activity against LPS induced mouse TSEC cells assessed as inhibition of CCL2 expression at 0.3 to 5 uM preincubated for 1 hr followed by LPS stimulation and measured after 4 hrs by qPCR analysis; type: functional, cell-based; conditions: dose 0.3-5 µM, time 5.0 hrs
[3] = Toxicity in mouse Megakaryocyte cells assessed as reduction in thrombocytopenia risk by CFU-MK Assay; type: cell-based
[4] = Apparent oral clearance in male C57BL6 mouse plasma at 10 mg/kg, ip measured up to 24 hrs by LC-MS/MS analysis; type: ADME, organism-based
[5] = Metabolic stability in mouse liver microsomes assessed as half life […] measured after 60 mins in presence of NADPH by LC-MS/MS analysis; type: ADME, Microsome
Mus musculus [6] = test: Antiinflammatory activity against LPS-induced C57BL/6J mouse model assessed as reduction in goblet cell in small intestine at 30 mg/kg, po preincubated for 1 hr followed by LPS stimulation and measured after 8 days by alcian blue staining based analysis; type: functional, organism-based; conditions: time 9.0 hrs
[7] = Cmax in male C57BL6 mouse plasma at 10 mg/kg, ip measured up to 24 hrs by LC-MS/MS analysis; type: ADME, organism-based
Mus musculus [8] = test: Antiinflammatory activity against LPS-induced C57BL/6J mouse model assessed as reduction in Cxcl2 expression at 30 mg/kg, po preincubated for 1 hr followed by LPS stimulation and measured after 8 hrs by qPCR analysis; type: functional, organism-based; conditions: time 9.0 hrs
Mus musculus [9] = test: Antiinflammatory activity against LPS-induced C57BL/6J mouse model assessed as reduction in Ccl2 expression at 30 mg/kg, po preincubated for 1 hr followed by LPS stimulation and measured after 8 hrs by qPCR analysis; type: functional, organism-based; conditions: time 9.0 hrs
[10] = AUC in male C57BL6 mouse plasma at 10 mg/kg, ip measured up to 24 hrs by LC-MS/MS analysis; type: ADME, organism-based; conditions: for AUC at 24 h: male, C57BL6, mouse, plasma
Mus musculus [11] = test: Antiinflammatory activity against APAP-induced C57BL/6J mouse liver injury model assessed as reduction in necrosis at 30 mg/kg, po preincubated for 1 hr followed by APAP stimulation and measured after 12 hrs by H and E staining based analysis; type: functional, organism-based
[12] = Cmax in male C57BL6 mouse liver at 10 mg/kg, ip measured up to 24 hrs by LC-MS/MS analysis; type: ADME, organism-based; conditions: in vivo
Mus musculus [13] = test: Antiinflammatory activity against APAP-induced C57BL/6J mouse liver injury model assessed as reduction in Cxcl2 expression at 30 mg/kg, po preincubated for 1 hr followed by APAP stimulation and measured after 8 hrs by qPCR analysis; type: functional, organism-based; conditions: time 9.0 hrs
TSEC [14] = test: Antiinflammatory activity against LPS induced mouse TSEC cells assessed as inhibition of CXCL1 expression at 0.3 to 5 uM preincubated for 1 hr followed by LPS stimulation and measured after 4 hrs by qPCR analysis; type: functional, cell-based; conditions: dose 0.3-5 µM, time 5.0 hrs
Mus musculus [15] = test: Antiinflammatory activity against APAP-induced C57BL/6J mouse liver injury model assessed as reduction in Cxcl1 expression at 30 mg/kg, po preincubated for 1 hr followed by APAP stimulation and measured after 8 hrs by qPCR analysis; type: functional, organism-based; conditions: time 9.0 hrs
Mus musculus [16] = test: Antiinflammatory activity against APAP-induced C57BL/6J mouse liver injury model assessed as reduction in Ly6G expression at 30 mg/kg, po preincubated for 1 hr followed by APAP stimulation and measured after 8 hrs by qPCR analysis; type: functional, organism-based; conditions: time 9.0 hrs
Mus musculus [17] = test: Antiinflammatory activity against LPS-induced C57BL/6J mouse model assessed as reduction in Cxcl1 expression at 30 mg/kg, po preincubated for 1 hr followed by LPS stimulation and measured after 8 hrs by qPCR analysis; type: functional, organism-based; conditions: time 9.0 hrs
[18] = Cytotoxicity against mouse TSEC cells at 10 uM measured after 4 hrs by XTT assay; type: toxicity, cell-based
Mus musculus [19] = test: Antiinflammatory activity against APAP-induced C57BL/6J mouse liver injury model assessed as reduction in Ccl2 expression at 30 mg/kg, po preincubated for 1 hr followed by APAP stimulation and measured after 8 hrs by qPCR analysis; type: functional, organism-based; conditions: time 9.0 hrs
[20] = AUC in male C57BL6 mouse liver at 10 mg/kg, ip measured up to 24 hrs by LC-MS/MS analysis; type: ADME, organism-based; conditions: in vivo
[21] = target: Bromodomain-containing protein 2 (Homo sapiens, UniProt P25440); test: Inhibition of his9-tagged BRD2-BD2 (unknown origin) preincubated for 30 mins followed by addition of biotinylated peptide and measured after 30 mins by Alphascreen assay
Chain of Bromodomain-containing protein 2 (P25440 whole entry): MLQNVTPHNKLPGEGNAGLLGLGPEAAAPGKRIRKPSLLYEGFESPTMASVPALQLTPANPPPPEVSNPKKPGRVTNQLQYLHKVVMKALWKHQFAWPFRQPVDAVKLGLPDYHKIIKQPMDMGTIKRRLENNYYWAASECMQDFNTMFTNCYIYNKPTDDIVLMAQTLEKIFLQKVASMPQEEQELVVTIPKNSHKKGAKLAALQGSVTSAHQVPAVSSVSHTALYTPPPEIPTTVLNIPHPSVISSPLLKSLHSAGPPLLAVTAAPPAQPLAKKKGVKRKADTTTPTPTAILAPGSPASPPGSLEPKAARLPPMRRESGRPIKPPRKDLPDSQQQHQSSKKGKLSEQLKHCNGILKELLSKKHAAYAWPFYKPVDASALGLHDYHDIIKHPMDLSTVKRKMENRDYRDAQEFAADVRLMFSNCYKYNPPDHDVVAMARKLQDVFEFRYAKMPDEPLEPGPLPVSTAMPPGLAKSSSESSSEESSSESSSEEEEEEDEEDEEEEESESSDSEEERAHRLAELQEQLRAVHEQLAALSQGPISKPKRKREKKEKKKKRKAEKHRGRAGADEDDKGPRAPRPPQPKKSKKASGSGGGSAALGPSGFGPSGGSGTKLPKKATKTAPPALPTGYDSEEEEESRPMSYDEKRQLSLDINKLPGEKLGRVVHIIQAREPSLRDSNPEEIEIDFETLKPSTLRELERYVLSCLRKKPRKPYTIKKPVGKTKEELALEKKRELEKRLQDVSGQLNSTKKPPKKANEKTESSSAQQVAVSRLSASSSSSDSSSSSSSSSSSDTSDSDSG

[22] = target: T1, Bromodomain-containing protein 4 (Homo sapiens, UniProt O60885); test: Inhibition of human his tagged BRD4-BD2 using Histone H4 peptide (1-21) K5/8/12/16Ac as substrate preincubated for 30 mins followed by addition of biotinylated peptide and measured after 30 mins by Alphascreen assay
[23] = target: T1, Bromodomain-containing protein 4; test: Induction of stabilization of BRD4-BD1 in human HEK293T cells at 0.5 to 5 uM incubated for 2 hrs by CESTA analysis; type: cell-based; conditions: dose 0.5-5 µM
[24] = target: T1, Bromodomain-containing protein 4; test: Inhibition of his9-tagged BRD4-BD1 (unknown origin) preincubated for 30 mins followed by addition of biotinylated peptide and measured after 30 mins by Alphascreen assay
[25] = target: T1, Bromodomain-containing protein 4; test: Inhibition of N-luc fused BRD4-BD1 in HEK293T cells using NanoGlo substrate as substrate incubated for 2 hrs by NanoBRET assay; type: cell-based
[26] = target: T1, Bromodomain-containing protein 4; test: Binding affinity to N-luc fused BRD4-BD1 in HEK293T cells assessed as apparent inhibition constant using NanoGlo substrate as substrate incubated for 2 hrs by NanoBRET assay; type: cell-based; conditions: read-out: Ki(app)
[27] = target: T1, Bromodomain-containing protein 4; test: Inhibition of N-luc fused BRD4-BD1 in HEK293T cells using NanoGlo substrate as substrate at 10 uM incubated for 2 hrs by NanoBRET assay relative to control; type: cell-based
[28] = Cytotoxicity against mouse TSEC cells at up to 200 uM measured after 4 hrs by XTT assay; type: toxicity, cell-based
[29] = mouse, in vivo, ip, 10 mg/kg, 24 h
[30] = mouse, megakaryocyte cells (CFU-MK colony formation)
[31] = male, C57BL6, mouse, plasma, read-out: CL/F (converted)

Cmax [7] | Cmax [12] | AUC [20] | IC50 [21] | Activity [23] | Structure (SMILES) | Activity (TSEC [2]) | EC50 ([3]; megakaryocyte) | Activity (Mus musculus [6]) | Activity (Mus musculus [8]) | Activity (Mus musculus [9]) | Activity (Mus musculus [11]) | Activity (Mus musculus [13]) | Activity (TSEC [14]) | Activity (Mus musculus [15]) | Activity (Mus musculus [16]) | Activity (Mus musculus [17]) | Activity (Mus musculus [19]) | Activity [28] | further results
1.8 µM | 137 nmol/g | 1402 nmol·h/g |  |  | Cc1ccc(C(C)C)cc1Oc1nccc(-c2c(-c3ccc(C(F)(F)F)cc3)ncn2C2CCNCC2)n1 | Active | 0.67 µM | Active | Active | Active | Active | Active | Active | Active | Active | Active | Active |  | t1/2 [1, 29]: 6.8 h; CL/F [4, 29]: 25.1 L/h/kg; half-life [5]: 3.45 h; AUC [10, 29]: 40.2 µM·h; Activity [18]: Toxic
 |  |  |  |  | CCNC(=O)c1cc2c(-c3cc(C(C)(C)O)ccc3Oc3c(C)cc(F)cc3C)cn(C)c(=O)c2[nH]1 [ABBV-744] |  |  |  |  |  |  |  |  |  |  |  |  |  | EC50 [3, 30]: 0.003 µM
1.05 µM | 38.9 nmol/g | 138 nmol·h/g | > 10 µM | inactive | Cc1ccc(C(C)C)cc1Oc1nccc(-c2c(-c3ccc(C(F)(F)F)cc3)ncn2C2CCN(CCO)CC2)n1 | Active | 1.83 µM |  | Active; Compound Showed No Significant Reduction Compared To I-Bet151 And Compound 3(Dw34) | Active; Compound Showed No Significant Reduction Compared To I-Bet151 And Compound 3(Dw34) | Active | inactive | Active | Active | inactive | Active; Compound Showed No Significant Reduction Compared To I-Bet151 And Compound 3(Dw34) | Active | Non-toxic | IC50 [22]: > 10 µM; half-life [1]: 3.4 h; CL/F [4, 31]: 3.9 L/h/kg; half-life [5]: 1.29 h; IC50 [24]: 0.111 µM; EC50 [25]: 2.45 µM; AUC at 24 h [10]: 4.04 µM·h; Ki [26]: 0.936 µM; inhibition [27]: 36%
 |  |  | 0.049 µM |  | CC(=O)Nc1c(F)cc(C(=O)N[C@H]2CC[C@H](O)CC2)cc1O[C@@H](C)c1ccccc1 [GSK046] | Active; Compound Is Less Effective Than I-Bet151 And Compound 3 | 0.38 µM |  |  |  | Active | inactive |  |  |  |  | inactive | Non-toxic | 
 |  |  |  |  | CCS(=O)(=O)Nc1ccc(Oc2ccc(F)cc2F)c(-c2cn(C)c(=O)c3[nH]ccc23)c1 [MIVEBRESIB] |  |  |  |  |  |  |  |  |  |  |  |  |  | EC50 [3, 30]: 0.645 µM
 |  |  |  | Active | COc1cc2c(cc1-c1c(C)noc1C)ncc1[nH]c(=O)n([C@H](C)c3ccccn3)c12 |  | 1.28 µM | Active | Active | Active | inactive | Active |  | Active | Active | Active | inactive | Non-toxic | 

Structure (SMILES) | Cmax [7] | Cmax [12] | AUC [20] | IC50 [21] | Activity [23] | Activity (TSEC [2]) | EC50 ([3]; megakaryocyte) | Activity (Mus musculus [6]) | Activity (Mus musculus [8]) | Activity (Mus musculus [9]) | Activity (Mus musculus [11]) | Activity (Mus musculus [13]) | Activity (TSEC [14]) | Activity (Mus musculus [15]) | Activity (Mus musculus [16]) | Activity (Mus musculus [17]) | Activity (Mus musculus [19]) | Activity [28] | further results
O=C(Nc1ccc(C(F)(F)F)cc1)Nc1ccc(S(=O)(=O)N2CCC[C@H]2CN2CCOCC2)cc1 |  |  |  | > 50 µM |  |  |  |  |  |  |  |  |  |  |  |  |  |  | 
Cc1cc(C)cc(Oc2cccc(-c3c(C)nnn3C3CCN(CCN(C)C)CC3)n2)c1 | 0.43 µM | 3.69 nmol/g | 2.65 nmol·h/g |  | inactive | Active | 0.09 µM | Active | Active; Compound Showed No Significant Reduction Compared To I-Bet151 And Compound 3(Dw34) | Active; Compound Showed No Significant Reduction Compared To I-Bet151 And Compound 3(Dw34) | Active | Active | Active | Active | Active | Active; Compound Showed No Significant Reduction Compared To I-Bet151 And Compound 3(Dw34) | Active | Non-toxic | half-life [1]: 2.3 h; CL/F [4, 31]: 28.2 L/h/kg; AUC at 24 h [10]: 0.64 µM·h
